Read-outs that look alike come from different tables or passages of the source.
How the values were obtained:
[1] = tested on: HFF-UL50, HFFs, MRC-5 and 293T cells; experiment: Neutral Red cytotoxicity of Shield-1 on four cell types; details: Shield-1 0.04–10 µM, 4 (293T) or 7 d post-treatment
Protocol: Analysis of putative cytotoxicity of the synthetic ligand Shield-1 on different cell
types. Four different types of cells (recombinant complementing cells HFF-UL50, primary HFFs and
and MRC-5 cells, and immortalized 293T) were treated with various concentrations of Shield-1
(0.04–10 µM as shown on the right). At 4 (293T) or 7 d post-treatment, cell viability was assessed by
Neutral Red staining. Data are presented as mean values ± SD over three biological replicates.
Cytotoxic staurosporine (STP, 1 µM) served as a positive control, DMSO-treated cells as a negative

HCMV AD169-GFP = experiment: microbe, parasite or virus in culture; assay type: cell-based, human cytomegalovirus (HCMV)
Protocol: (§1) Cytotoxicity of the analyzed compounds was determined by the Neutral Red dye uptake assay. A total of 1.35 × 10^5 HFFs per well were seeded in 96-well plates 1 d prior to analysis, cultivated overnight until cells were confluent and then incubated with compounds for 7 days. The assay was performed as described previously using 40 μg/mL Neutral Red (Sigma Aldrich). The quantity of dye incorporation was determined using the Victor X4 microplate reader (PerkinElmer, Waltham, MA, USA) by fluorescence measurement at 560/630 nm for excitation/emission, respectively. To assess antiviral activity of compounds, HFFs seeded in 96-well plates (1.35 × 10^5 HFFs per well) were infected with HCMV AD169-GFP or TB40-IE2-YFP to reach 25–50% infected cells at 7 days post-infection (d p.i.). After incubation with the infectious inoculum for 1.5 h at 37 °C, compounds were added in serial dilutions. At 7 d p.i., cells were fixed for 10 min at room temperature using 10% formalin. Finally, cells were washed once with PBS followed by automated fluorescence quantitation.
Seeking for a novel group of potential antiviral agents, small molecules with covalent protein-binding activity were investigated. These small molecules, originally developed as kinase inhibitors, carry a so-called warhead moiety as an important functional group, such as the prototype afatinib (Figure 1A, red circle). In this study, a series of newly generated warhead compounds (most of which are the property of B.K./Lead Discovery Center, Dortmund, Germany) were used for an evaluation of putative antiviral and core NEC-inhibitory properties. In a first step, the antiviral activity of warheads was analyzed against HCMV TB40-IE2-YFP (Figure 1B) and AD169-GFP (Figure 1C). To this end, HFFs were infected with either of the two viral strains before the GFP or YFP reporter signals were measured at 7 d p.i. (in parallel, putative compound cytotoxicity was determined by Neutral Red assay). The HCMVs AD169-GFP and TB40-IE2-YFP, based on BAC-derived recombinants of the laboratory strains AD169 and TB40, respectively, were both propagated on HFFs, and the produced stocks were then used as two reporter viruses for the assessement of antiviral drug activity. While strain AD169 is mainly restricted in its tropism to fibroblasts, TB40 tropism can be extended to fibroblasts and epithelial and endothelial cells. Here, the use of two strains was intended to illustrate the assumption that antiviral activity of these warhead compounds may be directed to conserved viral target proteins, thus pointing out a minor impact of strains.
(A) Chemical structure of a clinically approved prototype of covalently binding warhead inhibitors, […], afatinib/Gilotrif®. The red circle identifies a functionally active α-, β-unsaturated carbonyl group. (B) At 7 d p.i., compounds were analyzed for their cytotoxicity (orange) and antiviral activity (blue) during HCMV infection, using TB40-IE2-YFP as a reporter virus. Cell viability was assessed through Neutral Red staining of uninfected cells. Measurements were performed in quadruplicate (YFP fluorometry) or triplicate (Neutral Red assay), and standard deviations of mean values are given; EC50, CC50 and SI values are indicated accordingly. (C) In a parallel series of analyses, HCMV AD169-GFP was used as another reporter virus representing a second viral strain. […] HCMV AD169-GFP-infected HFFs were treated with 0.1 µM to 50 µM of the compounds (in parallel Neutral Red assay, 0.1 µM to 100 µM), before the signal assessments were performed at 7 d p.i.

in vitro = assay type: cell-based, human; details: human, CC50
Protocol: as §1

[2] = tested on: HCMV pUL53 nuclear rim localization; experiment: Confocal imaging of pUL53 localization in HCMV AD169-infected HFFs; assay type: cell-based
Protocol: HFF or HFF-UL50 cells, either Dox-induced or uninduced, were seeded in 6-well plates with a density of 2 × 10^5 cells per well, grown on coverslips and infected with HCMV AD169 or AD169 ∆UL50-ΣUL53. For infection experiments with the recombinant virus, different Shield-1 and Dox conditions were analyzed. Antivirals were added post-infection as described for the experiments. For transfection experiments, HeLa cells were seeded on coverslips in 6-well plates with a density of 3.25 × 10^5 cells per well for cotransfection with the indicated NEC expression plasmids (HSV-1 HA-UL34 + Flag-UL31, HCMV pUL50-HA + pUL53-Flag and EBV HA-BFRF1 + Flag-BFLF2). At indicated time points after virus infection, or 3 days post-transfection, cells were fixed, applied for IF staining as described previously and analyzed using a TCS SP5 confocal laser-scanning microscope with Leica LAS AF software (Leica Microsystems, Wetzlar, Germany). […] The device features a Leica photomultiplier tube (PMT) and a hybrid detector (HyD). Images were further processed using Photoshop CS5 (Adobe Inc., San José, CA, USA). Primary and secondary antibodies used for staining were mAb-UL53.01 (kindly provided by S. Jonjic and T. Lenac Rovis, Rijeka, Croatia), mAb-lamin A/C (ab108595, Abcam, Cambridge, UK), mAb-HA (Clone 7, H9658, Sigma-Aldrich, St. Louis, MO, USA), pAb-Flag (F7425, Sigma-Aldrich, St. Louis, MO, USA), anti-mouse Alexa 555 (A21422, Thermo Fisher Scientific, Waltham, MA, USA) and anti-rabbit Alexa 488 (A11034, Thermo Fisher Scientific, Waltham, MA, USA). Microscopic counting was performed for quantitation of colocalization patterns of two different proteins, as achieved by counting 50 cells per biological triplicate.

HFFs = experiment: in vitro; assay type: cell-based, human
Protocol: as §1

HCMV TB40-IE2-YFP = experiment: microbe, parasite or virus in culture; assay type: cell-based, human cytomegalovirus (HCMV)
Protocol: Cytotoxicity of the analyzed compounds was determined by the Neutral Red dye uptake assay. A total of 1.35 × 10^5 HFFs per well were seeded in 96-well plates 1 d prior to analysis, cultivated overnight until cells were confluent and then incubated with compounds for 7 days. The assay was performed as described previously using 40 μg/mL Neutral Red (Sigma Aldrich). The quantity of dye incorporation was determined using the Victor X4 microplate reader (PerkinElmer, Waltham, MA, USA) by fluorescence measurement at 560/630 nm for excitation/emission, respectively. […] Finally, cells were washed once with PBS followed by automated fluorescence quantitation.
Seeking for a novel group of potential antiviral agents, small molecules with covalent protein-binding activity were investigated. […] In a first step, the antiviral activity of warheads was analyzed against HCMV TB40-IE2-YFP (Figure 1B) and AD169-GFP (Figure 1C). To this end, HFFs were infected with either of the two viral strains before the GFP or YFP reporter signals were measured at 7 d p.i. (in parallel, putative compound cytotoxicity was determined by Neutral Red assay). […]
(A) Chemical structure of a clinically approved prototype of covalently binding warhead inhibitors, LDC580, afatinib/Gilotrif®. […] Cell viability was assessed through Neutral Red staining of uninfected cells. […]

SmBiT::UL50-HA = biological target: T1, SmBiT::UL50-HA (human cytomegalovirus (HCMV), UniProt P16791 1-397); experiment: split reporter (BiFC, NanoBiT); NanoBiT in 293T cells cotransfected with LgBiT and SmBiT constructs; NanoGlo Live Cell Assay, luminescence at 37 °C; background of LgBiT without SmBiT subtracted; some samples with warhead compounds (LDC compounds, ibrutinib and others); details: partners not purified
T1 construct: also called pUL50; HCMV core NEC groove protein; source: 293T cells, transiently transfected (PEI), in live cells
T1 sequence: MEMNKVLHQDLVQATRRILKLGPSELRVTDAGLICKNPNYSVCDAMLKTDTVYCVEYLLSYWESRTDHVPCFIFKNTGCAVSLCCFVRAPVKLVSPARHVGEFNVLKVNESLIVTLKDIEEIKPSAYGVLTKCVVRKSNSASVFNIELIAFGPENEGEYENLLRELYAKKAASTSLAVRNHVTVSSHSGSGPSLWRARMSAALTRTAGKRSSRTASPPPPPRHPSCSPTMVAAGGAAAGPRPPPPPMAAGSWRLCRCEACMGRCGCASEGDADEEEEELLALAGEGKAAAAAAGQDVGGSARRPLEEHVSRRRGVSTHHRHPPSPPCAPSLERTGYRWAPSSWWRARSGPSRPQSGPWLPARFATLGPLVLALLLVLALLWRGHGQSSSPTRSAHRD

[3] = Human betaherpesvirus 5, AD169, 168 h, clinically relevant warheads, 0.1 µM to 50 µM, AD169-GFP-infected HFFs, 7 d p.i.
[4] = HFFs infected with HCMV AD169 (MOI 0.1), 5 d p.i.

For `CC[C@H](C(=O)N1CCCC[C@H]1C(=O)O[C@H](CCc1ccc(OC)c(OC)c1)c1cccc(OCCN2CCOCC2)c1)c1cc(OC)c(OC)c(OC)c1` [Shield-1], the “cytotoxic potential (in words)” value [1] was “low cytotoxic potential”.

With `CCN(CC)C(=O)/C(C#N)=C/c1cc(O)c(O)c([N+](=O)[O-])c1` [entacapone] the “antiviral activity (in words)” value (HCMV AD169-GFP; AD169-GFP-infected HFFs, 7 d p.i., 0.1 µM to 50 µM) was “no notable antiviral activity”, the EC50 (HCMV AD169-GFP; [3]) was greater than 50 µM and the SI (HCMV AD169-GFP; selectivity index CC50/EC50, AD169-GFP, clinically relevant warheads) was “inactive”. The CC50 at 7 days (in vitro) was 93 ± 4 µM.

Work on `CCOc1cc2ncc(C#N)c(Nc3ccc(OCc4ccccn4)c(Cl)c3)c2cc1NC(=O)/C=C/CN(C)C` [neratinib] yielded an EC50 (HCMV AD169-GFP; [3]) of 0.3 ± 0.1 µM and a CC50 at 7 days (in vitro) of 37 ± 1 µM.

With `CCOc1cc(/C=c2\sc3n(c2=O)C(c2ccccc2OC)C(C(C)=O)=C(C)N=3)ccc1O` (stereo not shown) [LDC492] the EC50 (HCMV AD169-GFP; HFFs infected with HCMV AD169-GFP, 7 d p.i., investigational LDC warheads, read-out: EC50) was 8.9 ± 6.6 µM, the “cells with partial or predominant dot-like localization of pUL53 within the nucleoplasm” value ([2]; HCMV AD169 MOI 0.1, 5 d p.i., concentrations of partial-grade antiviral activity, 50 cells counted per biological triplicate) was “more than 50%” and the CC50 (HFFs) was greater than 10 µM. It also gave an EC50 (HCMV TB40-IE2-YFP; HFFs infected with HCMV TB40-IE2-YFP, 7 d p.i., YFP fluorometry, read-out: EC50) greater than 10 µM.

For `CC(C)Nc1nc2cc(Cl)c(Cl)cc2n1[C@H]1O[C@@H](CO)[C@H](O)[C@@H]1O` [MBV, maribavir], the “pUL53 localization (in words)” value [2, 4] was “predominant dot-like structures” and the “intranucleoplasmic coaggregation of lamin A/C (in words)” value ([2]; HFFs infected with HCMV AD169 (MOI 0.1), 5 d p.i., called preliminary) was “also visible”.

For `CN(C)C/C=C/C(=O)Nc1cc2c(Nc3ccc(F)c(Cl)c3)ncnc2cc1O[C@H]1CCOC1` [LDC580, afatinib], the EC50 (HCMV AD169-GFP; Human betaherpesvirus 5, AD169, 168 h, HFFs infected with HCMV AD169-GFP, 7 d p.i., investigational LDC warheads) was 0.6 µM, the “pUL53 localization (in words)” value [2, 4] was “no comparable effect” and the CC50 (HFFs; human, 7 days) was roughly 9 µM. The CC50 at 7 days (in vitro) was greater than 10 µM and the EC50 (HCMV TB40-IE2-YFP; Human betaherpesvirus 5, 168 h) was 0.8 µM.

B1: LgBiT::UL53(1–87)-Flag (domain or fragment)
chain: MSSVSGVRTPRERRSALRSLLRKRRQRELASKVASTVNGATSANNHGEPPSPADARPRLTLHDLHDIFREHPELELKYLNMMKMAIT
notes: source: 293T cells, transiently transfected (PEI), in live cells
In the case of B1, the “NanoBiT signal strength relative to LgBiT::UL53-Flag + SmBiT::UL50-HA (100%)” value (SmBiT::UL50-HA) is reported as 288%.

— paper PMC10137179, “Assessment of Covalently Binding Warhead Compounds in the Validation of the Cytomegalovirus Nuclear Egress Complex as an Antiviral Target” (Cells, 2023)
